US12590099B2, “Inhibitors of histone deacetylase useful for the treatment or prevention of HIV infection” (Merck Sharp & Dohme LLC, priority 2018, dated 2026)
Read-outs that look alike come from different tables or passages of the source.

Key:
HDAC6 = target: T1, HDAC6 (Homo sapiens, UniProt Q9UBN7); assay: Human HDAC enzyme inhibitor Fluor-de-Lys assay, HDAC6; assay type: biochemical
T1 sequence (Q9UBN7 1-1215): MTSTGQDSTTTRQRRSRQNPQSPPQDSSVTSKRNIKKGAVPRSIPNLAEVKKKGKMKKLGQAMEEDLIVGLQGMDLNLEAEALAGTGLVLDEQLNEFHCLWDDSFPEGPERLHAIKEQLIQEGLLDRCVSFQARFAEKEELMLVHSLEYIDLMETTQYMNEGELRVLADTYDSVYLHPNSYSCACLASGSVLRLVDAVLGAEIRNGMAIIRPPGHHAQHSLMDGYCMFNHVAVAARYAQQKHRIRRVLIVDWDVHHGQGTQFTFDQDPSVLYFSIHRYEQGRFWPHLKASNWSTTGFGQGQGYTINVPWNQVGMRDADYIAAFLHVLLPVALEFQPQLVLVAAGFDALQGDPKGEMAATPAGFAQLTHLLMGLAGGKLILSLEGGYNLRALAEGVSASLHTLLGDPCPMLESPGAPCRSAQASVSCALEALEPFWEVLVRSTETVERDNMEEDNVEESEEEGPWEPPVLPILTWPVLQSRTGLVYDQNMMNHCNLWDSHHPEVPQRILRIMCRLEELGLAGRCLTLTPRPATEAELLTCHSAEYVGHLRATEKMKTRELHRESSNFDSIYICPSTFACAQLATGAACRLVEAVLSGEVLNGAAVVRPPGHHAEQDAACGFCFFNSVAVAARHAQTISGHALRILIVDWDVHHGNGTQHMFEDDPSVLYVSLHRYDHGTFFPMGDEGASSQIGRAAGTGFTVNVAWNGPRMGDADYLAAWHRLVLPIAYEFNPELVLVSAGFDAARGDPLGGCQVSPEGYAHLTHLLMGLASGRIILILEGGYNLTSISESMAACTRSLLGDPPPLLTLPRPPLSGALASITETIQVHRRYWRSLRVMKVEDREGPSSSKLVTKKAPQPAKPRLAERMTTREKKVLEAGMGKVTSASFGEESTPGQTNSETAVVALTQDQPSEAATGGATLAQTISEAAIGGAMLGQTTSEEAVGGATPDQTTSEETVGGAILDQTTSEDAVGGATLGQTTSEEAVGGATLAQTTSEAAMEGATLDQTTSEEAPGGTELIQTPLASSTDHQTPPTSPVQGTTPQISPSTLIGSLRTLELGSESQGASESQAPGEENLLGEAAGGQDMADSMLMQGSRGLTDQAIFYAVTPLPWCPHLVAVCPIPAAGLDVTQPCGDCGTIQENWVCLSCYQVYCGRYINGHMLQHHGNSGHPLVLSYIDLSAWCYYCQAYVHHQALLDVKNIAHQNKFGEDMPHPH

Recombinant human HDAC2 = target: T2, Recombinant human HDAC2 (Homo sapiens, UniProt Q92769); assay: Human HDAC enzyme inhibitor Fluor-de-Lys assay, HDAC2; assay type: biochemical
T2 construct: Full length human HDAC2-FLAG was expressed in baculovirus infected Sf9 cells; FLAG (C); made in house; host or cells: Sf9 (baculovirus)
T2 sequence (Q92769 whole entry): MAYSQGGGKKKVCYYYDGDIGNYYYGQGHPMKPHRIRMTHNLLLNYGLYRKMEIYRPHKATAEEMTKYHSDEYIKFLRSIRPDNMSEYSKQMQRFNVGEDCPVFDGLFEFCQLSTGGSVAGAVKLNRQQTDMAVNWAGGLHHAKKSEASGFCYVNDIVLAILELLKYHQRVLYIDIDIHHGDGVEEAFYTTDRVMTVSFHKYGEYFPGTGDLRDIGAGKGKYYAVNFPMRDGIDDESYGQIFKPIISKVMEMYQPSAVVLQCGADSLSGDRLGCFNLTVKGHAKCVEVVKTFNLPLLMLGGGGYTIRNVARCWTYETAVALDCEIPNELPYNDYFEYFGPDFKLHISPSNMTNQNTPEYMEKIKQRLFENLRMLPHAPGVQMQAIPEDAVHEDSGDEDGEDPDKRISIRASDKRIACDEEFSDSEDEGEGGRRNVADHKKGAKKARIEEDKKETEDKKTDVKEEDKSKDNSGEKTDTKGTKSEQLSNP
Summary of the method: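 Fluor-de-Lys format at room temperature (23° C.): compounds titrated 10-point, 1:3, preincubated with HDAC before substrate addition. Developer with excess HDAC inhibitor ends the reaction, and trypsin-liberated AMC fluorescence is the read-out.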

[1] = recombinant human HDAC2, Fluor-de-Lys assay

CCC(=O)CCCCC[C@H](NC(=O)[C@@H]1CC12CN(C)C2)c1ncc(-c2cc3ccc(C)nc3cc2OC)o1 (single isomer, unassigned) [Compound 231]
IC50 (HDAC6; HDAC6, Fluor-de-Lys assay): 0.22 µM | IC50 (Recombinant human HDAC2; [1]): 0.0192 µM

CCC(=O)CCCCC[C@H](NC(=O)C1CC12CCN(CC)CC2)c1nc(-c2ccc(F)cc2)[nH]c1-c1cnc(OC)nc1 (some centres unmarked) [Compound 247]
IC50 (HDAC6; HDAC6, Fluor-de-Lys assay): > 45 µM | IC50 (Recombinant human HDAC2; [1]): 0.214 µM

CCC(=O)CCCCC[C@H](NC(=O)[C@H]1CC12CCN(C)CC2)c1ncc(-c2ccc3cc(C#N)ccc3c2)[nH]1 [Compound 90]
IC50 (HDAC6): 1.01 µM | IC50 (Recombinant human HDAC2): 0.0016 µM

CCC(=O)CCCCC[C@H](N)c1ncc(-c2cc3ccc(=O)n(C)c3cc2OC)o1 [Compound 224]
IC50 (HDAC6; HDAC6, Fluor-de-Lys assay): > 0.9 µM | IC50 (Recombinant human HDAC2; [1]): 0.445 µM

CCC(=O)CCCCC[C@H](NC(=O)CC1CC2(C1)CN(C)C2)c1nnc(-c2cc3ccccc3nc2OC)o1 [Compound 308]
IC50 (HDAC6; HDAC6, Fluor-de-Lys assay): 1.28 µM | IC50 (Recombinant human HDAC2; [1]): 0.0977 µM

CCC(=O)CCCCCC(NC(=O)C1CCC2(CC1)OC(=O)c1ccncc12)c1nnc(-c2cc3ccccc3nc2OC)o1 (centres unmarked) [Compound 363]
IC50 (HDAC6; HDAC6, Fluor-de-Lys assay): 2.04 µM | IC50 (Recombinant human HDAC2; [1]): 0.234 µM

CCC(=O)CCCCC[C@H](NC(=O)[C@H]1CC12CCN(C)CC2)c1ncc(-c2ccc(-c3cccnc3)nc2)[nH]1 [Compound 262]
IC50 (HDAC6; HDAC6, Fluor-de-Lys assay): 33.5 µM | IC50 (Recombinant human HDAC2; [1]): 0.0188 µM

CCC(=O)CCCCC[C@H](NC(=O)C1=NOC2(CCN(CC3CC3)CC2)C1)c1ncc(-c2cc3ccc(=O)n(C)c3cc2OC)o1 [Compound 236]
IC50 (HDAC6; HDAC6, Fluor-de-Lys assay): > 0.9 µM | IC50 (Recombinant human HDAC2; [1]): 0.0099 µM

CCOc1ncc(-c2cnc([C@H](CCCCCC(=O)CC)NC(=O)[C@H]3CC34CCN(C)CC4)[nH]2)cn1 [Compound 266]
IC50 (HDAC6; HDAC6, Fluor-de-Lys assay): 42.5 µM | IC50 (Recombinant human HDAC2; [1]): 0.372 µM

CCC(=O)CCCCC[C@H](NC(=O)C1CC12CC1CCC(C2)N1C)c1ncc(-c2ccc3ncccc3c2)[nH]1 (single isomer, unassigned) [Compound 242]
IC50 (HDAC6; HDAC6, Fluor-de-Lys assay): 0.133 µM | IC50 (Recombinant human HDAC2; [1]): 0.0161 µM

CCC(=O)CCCCC[C@H](NC(=O)[C@H]1CC12CCN(C)CC2)c1nc(Cl)c(-c2cc3ccccc3nc2O)[nH]1 [Compound 81, (1S)—N-{(1S)-1-[4-chloro-5-(2-hydroxyquinolin-3-yl)-1H-imidazol-2-yl]-7-oxononyl}-6-methyl-6-azaspiro[2.5]octane-1-carboxamide]
IC50 (HDAC6): 3.87 µM | IC50 (Recombinant human HDAC2): 0.337 µM

CCC(=O)CCCCC[C@H](NC(=O)[C@H]1CC12CCN(CC)CC2)c1ncc(-c2cnc3cc(C(F)(F)F)ccc3c2)[nH]1 [Compound 341]
IC50 (HDAC6; HDAC6, Fluor-de-Lys assay): 8.97 µM | IC50 (Recombinant human HDAC2; [1]): 0.0025 µM

CCC(=O)CCCCC[C@@H](NC(=O)C1CCC2(CC1)CN(C)C2)c1ncc(-c2ccccc2)[nH]1 [Compound 310]
IC50 (HDAC6; HDAC6, Fluor-de-Lys assay): 6.05 µM | IC50 (Recombinant human HDAC2; [1]): 0.167 µM

CCC(=O)CCCCC[C@H](NC(=O)C1(N)CC2(CN(C)C2)C1)c1ncc(-c2cc3ccccc3nc2OC)[nH]1 [Compound 276]
IC50 (HDAC6; HDAC6, Fluor-de-Lys assay): 1.28 µM | IC50 (Recombinant human HDAC2; [1]): 0.0091 µM

CCC(=O)CCCCC[C@H](NC(=O)CC1CC2(C1)CN(C(C)=O)C2)c1ncc(-c2ccccc2)[nH]1 [Compound 300, (S)-2-(2-acetyl-2-azaspiro[3.3]heptan-6-yl)-N-(7-oxo-1-(5-phenyl-1H-imidazol-2-yl)nonyl)acetamide]
IC50 (HDAC6; HDAC6, Fluor-de-Lys assay): 23.2 µM | IC50 (Recombinant human HDAC2; [1]): 0.802 µM

CCC(=O)CCCCC[C@H](NC(=O)[C@H]1CC12CCN(C)CC2)c1ncc(-c2cnc3c(c2)ncn3C)[nH]1 [Compound 256]
IC50 (HDAC6; HDAC6, Fluor-de-Lys assay): 3.93 µM | IC50 (Recombinant human HDAC2; [1]): 0.28 µM

CCC(=O)CCCCC[C@H](NC(=O)[C@H]1CC12CCN(C)CC2)c1ncc(-c2ccc(C(F)(F)F)cc2)[nH]1 [Compound 284]
IC50 (HDAC6; HDAC6, Fluor-de-Lys assay): 13.4 µM | IC50 (Recombinant human HDAC2; [1]): 0.0821 µM

CCC(=O)CCCCC[C@H](NC(=O)CC1CC2(C1)CN(C)C2)c1ncc(-c2cc3ccccc3nc2OC)[nH]1 [Compound 314]
IC50 (HDAC6; HDAC6, Fluor-de-Lys assay): 0.405 µM | IC50 (Recombinant human HDAC2; [1]): 0.0051 µM

CCC(=O)CCCCC[C@H](NC(=O)[C@H]1CC12CCN(C(C)C)CC2)c1ncc(-c2ccc3c(ccc(=O)n3C)c2)o1 [Compound 96]
IC50 (HDAC6): 7.3 µM | IC50 (Recombinant human HDAC2): 0.0445 µM
